# Entries after “also recorded” stand apart in the source; their conditions may differ. Where a SMILES comes first, the peptide text is derived from it.
# Legend:
# A. fumigatus (MFIG001) = assay: Minimum inhibitory concentration, A. fumigatus; format: cell-based, Aspergillus fumigatus; conditions: 5 × 10^5, 10% Vogel's
# Description: Aspergillus fumigatus strains were grown on Sabouraud dextrose agar (SAB agar) at 37° C. for 3 days. Conidia were collected in phosphate-buffered saline supplemented with 0.1% tween-20 (PBST) by gently scraping a spatula over the fungal colony surface. The spore solutions were then passed through autoclaved Miracloth to remove any hyphal residues and stored at 4° C. The spores were counted and the concentrations was determined in the same was as described for N. crassa.
# YFP-A. fumigatus = assay: Ex vivo porcine cornea infected with YFP-A. fumigatus, topical treatment, confocal live-cell imaging; parameters: species or system Aspergillus fumigatus
# Description: FIG. 6 contains images of ex vivo corneas infected with YFP-A. fumigatus treated with either PBS or MFIGAF001. All cornea were treated with one drop of reagent every 2 hours for the first 8 hours, then one drop every 8 hours for the remaining 16 hours. Treatment was continued for 72 hours with this treatment regimen. MFIGAF001 was used at 100 mg/L.
# FIG. 7 contains images of an ex vivo cornea infected with A. fumigatus treated with MFIGAF001, using the fluorescent confocal live-cell imaging approach with a yellow fluorescent protein (YFP). The yellow fluorescent signal (yellow in the original graphs, white reproduced here) indicates the live fungal burden that penetrated into the corneal tissue. All cornea were treated with one drop of reagent every 2 hours for the first 8 hours, then one drop every 8 hours for the remaining 16 hours. Treatment was continued for 72 hours with this treatment regimen. MFIGAF001 was used at 100 mg/L.
# FIG. 8 contains images of an ex vivo cornea infected with A. fumigatus treated with either Natamycin or MFIGAF001, using the fluorescent confocal live-cell imaging approach with a YFP. All cornea were treated with one drop of reagent every 2 hours for the first 8 hours, then one drop every 8 hours for the remaining 16 hours. […]
# YFP-A. fumigatus spores were harvested from 3 days old cultures grown on SAB agar at 37° C. in PBST and quantified using a haemocytometer. […]
# [1] = system: reconstructed cornea-like epithelium (RhCE, EpiOcular™); assay: Viability of reconstructed cornea-like epithelium (eye irritation model); format: cell-based
# Description: (§1) FIG. 4a is a graph of the viability reconstructed cornea-like epithelium (RhCE, EpiOcular™) after incubation with MFIGA001. NC=Negative Control; PC=Positive Control. FIG. 4b is a graph of the viability reconstructed cornea-like epithelium (RhCE, EpiOcular™) after incubation with 10 µM of MFIGA001a and MFIGAF001b. NC=Negative Control; PC=Positive Control; A2=MFIGAF001a; and B1=MFIGAF001b.
# (§2) MFIGAF001 was also assessed independently by a CRO (Evotec) in an OECD compliant reconstructed cornea-like epithelial cell model (RhCE, EpiOcular™).
# [2] = as above; format: cell-based; conditions: human, reconstructed cornea-like epithelium (RhCE, EpiOcular™)
# Description: as §1, §2
# A. fumigatus = assay: Live cell imaging of A. fumigatus in co-cultures with A549; format: cell-based, Aspergillus fumigatus; conditions: 2.5 µM, 10 min after addition, 37° C. in RPMI
# C. albican = format: cell-based
# Description: (§3) Candida strains used were grown on SAB agar at 37° C. for 3 days, and the Cryptococcus strain was grown on SAB agar at 37° C. for 6 days. Cells were harvest using sterile inoculation loop by taking a single colony and resuspending in phosphate-buffered saline supplemented with 0.1% tween-20 (PBST). The concentration of cells was then quantified with a haemocytometer. For the determination of the minimum inhibitory concentration, cell density was adjusted to 10^6 cells/mL with 20% liquid Vogel's medium.
# C. auris = format: cell-based
# Description: as §3
# C. glabrata (NCPF 3309) = format: cell-based
# Description: as §3
# [3] = system: C. inconspicua (ATCC 16783); format: cell-based
# Description: as §3
# C. krusei (ATCC 6258) = format: cell-based
# Description: as §3
structure (smiles),measurement,setting,value
"N=C(N)NCCC[C@@H]1NC(=O)CNC(=O)[C@H](Cc2c[nH]c3ccccc23)NC(=O)[C@H](Cc2ccccc2)NC(=O)[C@H](Cc2c[nH]c3ccccc23)NC(=O)[C@@H](Cc2ccccc2)NC(=O)[C@H](CCCCN)NC(=O)[C@H](CCCCN)NC1=O [MFIGAF001, Cyclo(Arg-Lys-Lys-phe-Trp-Phe-Trp-Gly)] (HELM PEPTIDE1{F.W.G.R.K.K.[dF].W}$PEPTIDE1,PEPTIDE1,1:R1-8:R2$$$V2.0)",MIC,A. fumigatus (MFIG001),5 µM
same,Live fungal burden in ex vivo cornea,"YFP-A. fumigatus; 100 mg/L topical drops, 72 h of treatment, vs saline",reduced fungal burden; also recorded: elimination of live fungal burden
same,Efficacy ex vivo compared with Natamycin,"YFP-A. fumigatus; MFIGAF001 100 mg/L, Natamycin 120 mg/L, 72 hours",comparable efficacy
same,"Toxicity, reconstructed cornea-like epithelium (FIG. 4)",[1],no obvious toxicity
same,viability at 100 µg/mL,[2],87.3%
same,viability at 200 µg/mL,[2],87.2%
same,viability at 400 µg/mL,[2],88.6%
same,viability at 500 µg/mL,[2],93.7%
same,Selective labelling of A. fumigatus over A549,A. fumigatus,selectively labels A. fumigatus
same,MIC,C. albican,2 µM
same,MIC,C. auris,2 µM
same,MIC,C. glabrata (NCPF 3309),3.9 µM
same,MIC,[3],2 µM
same,MIC,C. krusei (ATCC 6258),3.9 µM
